Series [1] is described as follows: Pharmacokinetics following a single dose in rat (LC-MS/MS of blood, one-compartment model). The note with it: rat, averaged across three rats. It counts as in vivo. Here is the method:
Compounds were administered as a single dose (either 1 mg/kg bodyweight in 5% DMSO via the intravenous route or 3 mg/kg in 1% carboxymethylcellulose via the oral route) to three adult rats (using different rats for each compound and each route of administration).
Blood was then sampled at various time points (including just prior to dose administration) out to 24 hrs post dose, and the level of the various compounds was assessed using a validated LC-MS/MS assay. Briefly, 3-5 μl of the deproteinised sample was applied to a Waters Atlantis (C18 20×2.1 mm, 3 μm bead size) reverse phase chromatography column equilibrated in 0.1% formic acid in 95:5 water:actetonitrile. Over 3.5 minutes bound material was gradient eluted reaching 0.1% formic acid in 5:95 water:acetonitrile, followed by a step gradient back to 0.1% formic acid in 95:5 water:acetonitrile. The column eluent was then directed to an Applied Biosystems API 4000/3200 QTrap MS/MS mass spectrometer, with a Turbolonspray™ ion source operating in positive ion mode. The interface temperature was set at 650° C., with a 40 ms dwell time for each MRM transition, monitoring the following ions:
The internal standard in each determination was the related compound (S)-3-(2′,2′-dimethylpropanoylamino)-caprolactam, which was spiked into the sample prior to deproteinization. The lower limit of quantitation (LLOQ) for this assay was 2.4 ng/ml for each compound except (I′), where it was 38.1 ng/ml.
Following LC-MS/MS analysis of each collected sample, the pharmacokinetic disposition of the compound was modelled using Kinetica software, a well known software package for such applications.

A short description of series [2]: Identification of the primary metabolites in pooled 24 h urine (LC-MS-MS full scan). It counts as in vivo. The note with it: rat, single oral dose 3 mg/kg in 1% CMC, qualitative. As to the method: Urine was collected from rats exposed to a single oral dose (3 mg/kg in 1% CMC) of each compound over a 24 hour period in metabolic cages. The pooled urine sample was then subjected to full scan mass spectral analysis, using the same LC-MS conditions as described in example 1 above. Further MS-MS analysis of the product ions was then performed, and likely fragmentations/re-arrangements assigned from the publicly available Metabolite ID database.
For the major metabolites, the assigned structures were confirmed by synthesis of authentic samples, using methods well known in the art, which were subject to LC-MS-MS analysis under the same conditions as the urine samples.
Note that metabolite ID studies provide only qualitative estimates of the relative amounts of the different metabolites present, and separately validated assays with appropriate internal standards would be required to quantitate each metabolite species.
The detected metabolites, in rank order of concentration detected are shown in FIG. 2 for the five compounds analysed. It is important to note that the methodology used here is not necessarily exhaustive, and further (particularly minor) metabolites may also be present which were below the detection limits for the methods applied here. As a general rule, it can be assumed that metabolites representing 10% or more of the injected dose will be detected (though not necessarily structurally identified) by the methods used here).

In series [3] the test system is S. Typhinurium (TA 102, TA98 and TA 100). The series can be described thus: AMES test, revertant colony formation. It counts as cell-based. As to the method:
The five compounds were subjected to a standard AMES test to assess likely genotoxicity. Three His-auxotroph strains of S. Typhinurium (TA 102, TA98 and TA 100) were treated with each of the compounds at 5 concentrations (up to 5 mg/ml) in the presence and absence of S9 rat liver microsomal metabolising system. The number of revertant colonies was then determined by plating on trace-His minimal media.

In series [4] the test system is MCP-1 induced THP-1 cell migration. In words: ChemoTx transwell migration assay, MCP-1 induced migration of THP-1 cells. The note with it: Homo sapiens. It counts as cell-based. Here is the method:
In principle, this assay consists of two chambers separated by a porous membrane. The chemoattractant is placed in the lower compartment and the cells are placed in the upper compartment. After incubation for a period at 37° C. the cells move towards the chemoattractant, and the number of cells in the lower compartment is proportional to the chemoattractant activity (relative to a series of controls).
The THP-1 cell line (European Cell Culture Collection) were used as the leukocyte cell population.
First, the cell suspension to be placed in the upper compartment is prepared. The THP-1 cells are pelleted by centrifugation (770×g; 4 mins) and washed with Geys Balanced Salt Solution with 1 mg/ml BSA (GBSS+BSA). This wash is then repeated, and the cells repelleted before being resuspended in a small volume of GBSS+BSA for counting, for example using a standard haemocytometer.
The volume of GBSS+BSA is then adjusted depending on the number of cells present so that the cells are at final density of 4.45×10^6 cells per ml of GBSS+BSA. This ensures that there are […] THP-1 cells in each 25 μl of the solution that will be placed in the upper chamber of the plate.
To test a single compound for its ability to inhibit chemokine induced migration, it is necessary to prepare two lots of cells. The suspension of THP-1 cells at 4.45×10^6 cells/ml is divided into two pots. To one pot the inhibitor under test is added at an appropriate final concentration, in an appropriate vehicle (for example at 1 μM in not more than 1% DMSO). To the second pot an equal volume of GBSS+BSA plus vehicle as appropriate (e.g. not more than 1% DMSO) is added to act as a control.
Next, the chemoattractant solution to be placed in the lower compartment is prepared. For example, MCP-1 is diluted in GBSS+BSA to give a final concentration of 25 ng/ml. This is divided into two pots, as for the cell suspension. To one pot, the test compound is added to the same final concentration as was added to the cell suspension, while to the other pot an equal volume of GBSS+BSA plus vehicle as appropriate (e,g. not more than 1% DMSO) is added. Alternatively, other chemokines may be used (SDF-1α at 7.5 ng/ml; RANTES at 50 ng/ml; IL-8 at 10 ng/ml using neutrophils as the target cell population). In each case it is important to determine (in a separate experiment) the concentration of each chemokine which causes maximal stimulation of migration of the chosen target leukocyte population. This maximal concentration must then be used in experiments to test the inhibitory activity of the compounds of the invention.
Once the chemoattractant solutions for the lower wells and cell solutions for the upper chambers have been prepared, the migration chamber should be assembled. Place 29 μl of the appropriate chemoattractant solution into the lower well of the chamber. Assays should be performed with at least triplicate determinations of each condition. Once all the lower chambers have been filled, apply the porous membrane to the chamber in accordance with the manufacturer's instructions. Finally, apply 25 μl of the appropriate cell solution to each upper chamber. A plastic lid is placed over the entire apparatus to prevent evaporation.
The assembled chamber is incubated at 37° C., 5% CO2, for 2 hours. A suspension of cells in GBSS+BSA is also incubated under identical conditions in a tube: these cells will be used to construct a standard curve for determining the number of cells that have migrated to the lower chamber under each condition.
At the end of the incubation, the liquid cell suspension is gently removed from the upper chamber, and 20 μl of ice-cold 20 mM EDTA in PBS is added to the upper chamber, and the apparatus is incubated at 4° C. for 15 mins. This procedure causes any cells adhering to the underside of the membrane to fall into the lower chamber.
After this incubation the filter is carefully flushed with GBSS+BSA to wash off the EDTA, and then the filter is removed. […]

Series [5] has as its system LPS-induced TNF-α production. In words: Sub-lethal LPS-induced endotoxemia, serum TNF-α by ELISA. It counts as in vivo, mouse. The note with it: for inhibition of LPS-induced TNF-α production: mouse, reference agents, previously shown by applicant, dose not stated. As to the method: In this assay, mice are given a non-specific pro-inflammatory challenge using bacterial endotoxin (LPS), and the extent of the systemic inflammatory response (measured by serum levels of the central pro-inflammatory cytokine TNF-α, which is essentially absent from the blood under normal conditions, but is rapidly elevated in response to a wide range of inflammatory stimuli).
Mice (in groups of 6) were pretreated with various doses of each compound, either by the subcutaneous route 30 mins prior to LPS challenge, or by the oral route (via gavage) 60 mins prior to LPS. The mice were then challenged with an intraperitoneal injection of 750 μg of bacterial LPS and sacrificed 3 hours later. Serum was prepared from a terminal bleed by cardiac puncture, and the concentration of TNF-α is determined by ELISA (R&D Systems). In each experiment, a group of 6 mice receive no LPS to act as a negative control, and a second group receive only LPS (with no candidate inhibitor). The level of TNF-α in serum from these animals, which received LPS without drug pre-treatment, is arbitrarily set to 100% (and is typically of the order of 6,000 pg/ml, compared with levels of <10 pg/ml among the negative control group). […]

Where two headings read alike, the source gives them in different places.

From patent US7897620B2, “Methods of using anti-inflammatory compounds” (Cambridge Enterprise Limited, priority 2007, dated 2011) come the findings set out here.

For the compound `CC1(C(=O)N[C@H]2CCCCNC2=O)CCCCC1` [(III), 3-(1′-methylcyclohexylcarbonylamino)-caprolactam], the AUC(0-inf) in series [1] (blood, single oral dose 3 mg/kg in 1% CMC, read-out: Exposure (AUC 0->infinity) (converted)) was 48.3 ng·h/mL. The “F (%) oral bioavailability” value in series [1] (1 mg/kg iv in 5% DMSO and 3 mg/kg oral in 1% CMC, one-compartment model) was found to be 5%. Further, in series [1] (one-compartment model), the “Vss (L/kg) volume of distribution” value is reported as 0.6 L/kg, the “clearance” value turned out to be 55 mL/min/kg and the “t½ (mins) dominant plasma half-life” value was found to be 11 min. In addition, the “major metabolite / route of metabolism detected in urine” value in series [2] was “cytochrome P450-mediated hydroxylation”. The “Revertant colony formation TA98 + S9” value in series [3] (TA98 with S9, top dose 5 mg/ml) amounted to 0.55. The “Revertant colony formation TA98” value in series [3] (TA98 without S9, top dose 5 mg/ml) was 0.68. Also, the “Revertant colony formation TA100 + S9” value in series [3] (TA100 with S9 rat liver microsomal system, top dose 5 mg/ml) was found to be 0.81. Moreover, the “Revertant colony formation TA100” value in series [3] (TA100 without S9, top dose 5 mg/ml) was 0.79. Besides, in series [3] (TA102 with S9, top dose 5 mg/ml), the “Revertant colony formation TA102 + S9” value was found to be 0.88. Moreover, in series [3] (TA102 without S9, top dose 5 mg/ml), the “Revertant colony formation TA102” value is listed as 0.69. For the same compound, the EC50 in series [4] (THP-1 cells, maximal dose of chemoattractant, read-out: ED50 MCP-1) amounted to 0.08 nM. The EC50 in series [4] (THP-1 migration inhibition, Table 5, read-out: Functional ED50 versus MCP-1) was 0.08 nM.
For `C=CCCCCCCCCC(=O)N[C@H]1CCC(=O)NC1=O` [NR58,4], the “fold less potent in vivo than 2′,2′-dimethylpropanoylamino)-tetrahydropyridin-2-one” value in series [5] (models of acute inflammation such as LPS-induced endotoxemia) is “at least 250 fold”.
As for `C[C@@H]1C[C@H]2[C@@H]3CCC4=CC(=O)C=C[C@]4(C)[C@@]3(F)[C@@H](O)C[C@]2(C)[C@@]1(O)C(=O)CO` [dexamethasone], in series [5], the “inhibition of LPS-induced TNF-α production” value was “at least 90%”.
Turning to `O=C1CCC(N2C(=O)c3ccccc3C2=O)C(=O)N1` (centres unmarked) [thalidomide], the “inhibition of LPS-induced TNF-α production” value in series [5] was “about 60%”.
